Measurements reported in patent US12157745B2, “Heterocyclic systems and pharmaceutical compositions thereof” (University of Sharjah, priority 2018, dated 2024).

Assays:
cytosol aminopeptidase = target: T1, cytosol aminopeptidase (Homo sapiens, UniProt P28838); test: DARTS proteomic assay; type: binding
T1 construct: HEK293T cells were lysed using M-PER; endogenous in cells; host or cells: HEK293T lysate
Text: (§1) The unique properties of compound it prompted an in-depth analysis to explore its potential novel targets. […] Mammalian thioredoxin reductases (TrxRs) are selenocysteine-containing homodimericflavin enzymes that catalyze the NADPH-dependent reduction of oxidized thioredoxins. […] Therefore, inhibiting this enzyme should form the foundation of a novel anticancer lead drug candidate. Many drug companies around the world are trying to design drugs that target this enzyme, however, until now there is no clinical anti-cancer drug that specifically targets TrxR although some drugs have been reported to inhibit TrxR to varying extents. […] One of the hurdles in developing a successful TrxR inhibitor is its cross reactions with thiols present inside the cells. […] Moreover, according to many reports, inhibiting excessive TrxR levels will also […] of Parkinson's disease as well as Alzheimer's disease. On the other hand, increased aminopeptidases are typically observed in many cancer tissues and play a key role in tumor cell proliferation, angiogenesis, and tumor invasiveness by regulating extracellular matrix degradation and cell signaling and recognition. […] A DARTS assay was used to assess the binding of compound 1t. HEK293T cells were lysed using M-PER (Thermo Scientific, Inc.) supplemented with protease and phosphatase inhibitors (Lysis buffer). 4.7 mg/mL of protein and TNC buffer (10 mM Tris, 140 mMNaCl, 5 mM CaCl2)) was added, compound it was diluted in DMSO to 3 different concentrations (0.01 μM, 0.1 μM, 1 μM) and incubated for one hour at room temperature. Trypsin (Promega) was added and incubated for 3 hours at 37° C. Thereafter, M-PER lysis buffer was added and the samples were concentrated with Microcon 10K centrifugal filters. The proteins were identified by gel electrophoresis liquid chromatography mass spectroscopy ([…]).

thioredoxin reductase = target: T2, thioredoxin reductase (Homo sapiens, UniProt Q16881); test: DARTS proteomic assay; type: binding; conditions: FIG. 9
T2 construct: HEK293T cells were lysed using M-PER; endogenous in cells; host or cells: HEK293T lysate
Text: as §1

[1] = system: Bid, Bax, caspase-3 & -9, Bcl-xL; test: Western blot and annexin V, pro- and anti-apoptotic proteins; type: cell-based; conditions: western blot, confirmed by annexin V study
Protocol: Over-expression of this oncogene could result in tumor cell proliferation and migration and therefore its inhibition may halt tumor growth. Other pro-apoptotic (Bid, Bax, caspase-3 & -9) and anti-apoptotic (Bcl-xL) proteins were also modulated by compound it as evident from western blot analysis and as confirmed by annexin V study (FIG. 7).
The MCF-7, SKBR3 and HCT116 total cell lysate were prepared after 24 hours of treatment with compound it at IC50 and DIC50 doses by using 1× laemmli buffer. Total protein concentration was then estimated for each sample and 15-30 μg of protein lysate were loaded equally on 12% SDS-PAGE gel in order to detect various proteins expression levels. In short, the membrane was incubated with different primary antibodies (as mentioned in above section) (1:1000) overnight after blocking with 5% non-fat milk solution for 1 hour. The membrane was then re-probed with respective mouse/rabbit secondary antibodies (1:2000) for 1 h, and later developed by enhanced chemiluminescence (ECL) method by using a Chemidoc MP (BioRad, Germany).
The apoptotic level was measured using a kit method as per supplier's protocol. […] 2×10^6 cells were counted and re-suspended in 1 mL of binding buffer (1×). […] 400 μL of IX binding buffer was finally added to the cells and analyzed immediately by using by a flow cytometer (BD, Accuri C6).

glutathione reductase = target: T3, glutathione reductase (Homo sapiens, UniProt P00390); test: DARTS proteomic assay; type: binding; conditions: dose-dependent manner, FIG. 12
T3 construct: HEK293T cells were lysed using M-PER; endogenous in cells; host or cells: HEK293T lysate
Protocol: The unique properties of compound it prompted an in-depth analysis to explore its potential novel targets.
A DARTS assay was used to assess the binding of compound 1t. HEK293T cells were lysed using M-PER (Thermo Scientific, Inc.) supplemented with protease and phosphatase inhibitors (Lysis buffer). 4.7 mg/mL of protein and TNC buffer (10 mM Tris, 140 mMNaCl, 5 mM CaCl2)) was added, compound it was diluted in DMSO to 3 different concentrations (0.01 μM, 0.1 μM, 1 μM) and incubated for one hour at room temperature. Trypsin (Promega) was added and incubated for 3 hours at 37° C. Thereafter, M-PER lysis buffer was added and the samples were concentrated with Microcon 10K centrifugal filters. The proteins were identified by gel electrophoresis liquid chromatography mass spectroscopy (GelLCMS).

tubulin = test: Tubulin polymerization / microtubule formation (immunofluorescence and kit method); type: cell-based; conditions: in comparison to colchicine and taxol (positive controls); FIGS. 4A and 4B
Protocol: Cell synchronization and tubulin study: The antiproliferative effect of the compound it was tested on MCF7 cells which were synchronized at specific phases of the cell cycle. […] One way of inhibiting cell proliferation in G2/M phase is by altering equilibrium between polymerization and depolymerization of microtubule proteins which is required for active mitotic cell division.
An immunofluorescence method is used for detecting tubulin polymerization effect of compound 1t. The cells (5×10^4/well) were plated overnight on coverslips on a six well plate and treated with IC50 concentration of compound 1t, taxol and colchicine for 24 hours. After treatment, the cells were rinsed twice with PBS, fixed with 3.7% paraformaldehyde, and permeabilized with 0.1% Triton X-100. The cells were then blocked with 1% BSA in PBS for 1 hour before further incubation with anti-p-tubulin mouse monoclonal antibody overnight at 4° C. (Cell Signaling, San Francisco, CA). […]
Tubulin polymerization was measured in vitro using the Tubulin Polymerization Assay kit (Cytoskeleton, Denver, CO). […] The polymerization of tubulin was monitored as fluorescence at 37° C. for 60 min, and the reading speed was programmed at 1 cycle/min with excitation and emission wavelengths of 360 and 450 nm, respectively, using the Varioskan® Flash spectral scanning multimode reader (Thermo Fisher Scientific™). […]

T2 sequence (Q16881 151-649 limits assumed): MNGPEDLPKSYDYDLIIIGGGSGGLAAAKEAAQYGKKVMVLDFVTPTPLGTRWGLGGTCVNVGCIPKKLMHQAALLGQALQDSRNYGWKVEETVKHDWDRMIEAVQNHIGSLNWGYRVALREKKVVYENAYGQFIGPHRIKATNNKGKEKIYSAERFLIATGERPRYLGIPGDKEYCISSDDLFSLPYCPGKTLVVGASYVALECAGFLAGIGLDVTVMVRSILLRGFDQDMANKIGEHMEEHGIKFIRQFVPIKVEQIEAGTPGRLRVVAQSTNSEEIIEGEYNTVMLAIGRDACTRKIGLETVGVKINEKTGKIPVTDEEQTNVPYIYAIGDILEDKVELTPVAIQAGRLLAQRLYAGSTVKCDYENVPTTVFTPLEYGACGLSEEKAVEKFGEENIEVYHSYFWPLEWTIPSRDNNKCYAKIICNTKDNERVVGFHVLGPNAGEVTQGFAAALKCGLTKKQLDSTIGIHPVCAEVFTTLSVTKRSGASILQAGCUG
T3 sequence (P00390 44-522): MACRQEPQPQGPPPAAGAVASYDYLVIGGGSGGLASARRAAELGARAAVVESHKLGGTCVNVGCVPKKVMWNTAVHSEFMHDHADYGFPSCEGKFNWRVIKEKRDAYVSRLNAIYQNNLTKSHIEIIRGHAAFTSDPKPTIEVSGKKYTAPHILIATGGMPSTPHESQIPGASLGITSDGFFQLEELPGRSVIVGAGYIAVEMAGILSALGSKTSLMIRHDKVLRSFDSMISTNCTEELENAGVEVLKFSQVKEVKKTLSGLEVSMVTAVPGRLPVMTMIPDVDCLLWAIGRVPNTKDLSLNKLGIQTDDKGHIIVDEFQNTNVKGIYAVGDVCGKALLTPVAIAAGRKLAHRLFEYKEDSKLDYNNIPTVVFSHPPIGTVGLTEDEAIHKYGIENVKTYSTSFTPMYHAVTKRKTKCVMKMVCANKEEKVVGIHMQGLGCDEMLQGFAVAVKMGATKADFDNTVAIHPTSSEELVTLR
T1 sequence (P28838 whole entry): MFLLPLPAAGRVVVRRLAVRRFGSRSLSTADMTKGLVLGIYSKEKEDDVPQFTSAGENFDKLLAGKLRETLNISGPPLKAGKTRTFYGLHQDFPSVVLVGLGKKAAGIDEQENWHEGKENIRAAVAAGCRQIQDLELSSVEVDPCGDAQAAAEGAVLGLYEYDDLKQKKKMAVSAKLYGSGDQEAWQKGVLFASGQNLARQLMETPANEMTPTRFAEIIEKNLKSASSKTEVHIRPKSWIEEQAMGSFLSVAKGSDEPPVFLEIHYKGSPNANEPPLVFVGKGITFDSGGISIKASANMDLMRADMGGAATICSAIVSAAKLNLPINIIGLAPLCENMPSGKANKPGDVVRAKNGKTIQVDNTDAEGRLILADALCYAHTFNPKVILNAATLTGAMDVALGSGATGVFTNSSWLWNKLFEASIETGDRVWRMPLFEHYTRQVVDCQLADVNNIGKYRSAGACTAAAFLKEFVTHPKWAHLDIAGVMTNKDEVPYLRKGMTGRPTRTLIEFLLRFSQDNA

Targeting of cytosolic aminopeptidase (cytosol aminopeptidase): dose-dependent manner
Concentration of highest effect on TrxR (thioredoxin reductase): 1 µM
Modulation of TrxR (thioredoxin reductase; HEK293T lysate, 0.01, 0.1, 1 μM): concentration-dependent modulation
Modulation of glutathione reductase function (glutathione reductase): modulated the functions
SMILES: CC1(C)[C@H]2COc3ccc4ccccc4c3[C@H]2N=C2SC(c3ccccc3)=C(c3ccccc3)N21 [Compound 1t]
Pro-apoptotic (Bid, Bax, caspase-3 & -9) and anti-apoptotic (Bcl-xL) proteins [1]: modulated
Inhibition of microtubule formation (tubulin): strong inhibition
